What was measured:
[1] = biological target: T1, human β-PDGF receptor (Homo sapiens, UniProt P09619); assay: Inhibitory effect on phosphorylation of PDGF receptor; format: cell-based; details: CHO cells expressing human β-PDGF receptor
T1 construct: expressed in transfected cells; host or cells: Chinese hamster ovary cells (CHO)
Procedure: Test Example 1 Inhibitory Effect on Phosphorylation of PDGF Receptor
The test was carried out according to the method described in the literature [Dah-Shuhn et al., J. Biol. Chem., 266, 413-418 (1991)], using Chinese hamster ovary cells (CHO) wherein human β-PDGF receptor cDNA was introduced and expressed.

T1 sequence (P09619 33-1106): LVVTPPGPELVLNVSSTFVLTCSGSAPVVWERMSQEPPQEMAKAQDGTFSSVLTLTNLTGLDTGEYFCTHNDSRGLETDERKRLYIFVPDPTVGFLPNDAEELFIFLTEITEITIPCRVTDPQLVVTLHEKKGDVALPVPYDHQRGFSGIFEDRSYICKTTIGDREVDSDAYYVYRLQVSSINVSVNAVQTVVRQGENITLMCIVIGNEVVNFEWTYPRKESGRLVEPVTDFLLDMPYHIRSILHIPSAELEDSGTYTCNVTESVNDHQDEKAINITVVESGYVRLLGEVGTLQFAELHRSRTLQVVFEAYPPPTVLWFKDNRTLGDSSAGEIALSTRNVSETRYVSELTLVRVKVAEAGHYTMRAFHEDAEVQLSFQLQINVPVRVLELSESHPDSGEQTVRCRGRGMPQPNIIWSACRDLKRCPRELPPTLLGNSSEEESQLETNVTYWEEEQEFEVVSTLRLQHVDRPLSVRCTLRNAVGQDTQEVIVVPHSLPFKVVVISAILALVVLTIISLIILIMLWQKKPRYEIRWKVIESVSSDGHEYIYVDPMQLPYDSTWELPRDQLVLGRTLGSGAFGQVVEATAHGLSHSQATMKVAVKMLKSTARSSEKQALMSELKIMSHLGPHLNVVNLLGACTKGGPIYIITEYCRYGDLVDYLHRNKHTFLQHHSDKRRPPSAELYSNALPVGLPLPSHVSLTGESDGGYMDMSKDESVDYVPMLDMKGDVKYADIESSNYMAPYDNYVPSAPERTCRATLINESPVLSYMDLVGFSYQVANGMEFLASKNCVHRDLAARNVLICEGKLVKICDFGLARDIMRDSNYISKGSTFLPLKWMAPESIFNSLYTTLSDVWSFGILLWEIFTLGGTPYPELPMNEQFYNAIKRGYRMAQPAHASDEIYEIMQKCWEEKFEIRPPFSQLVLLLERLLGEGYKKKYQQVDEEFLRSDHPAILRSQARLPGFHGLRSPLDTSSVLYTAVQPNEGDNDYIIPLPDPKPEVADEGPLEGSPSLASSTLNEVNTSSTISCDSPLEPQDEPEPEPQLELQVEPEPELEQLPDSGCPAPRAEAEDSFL

| Structure (SMILES) | IC50 [1] | melting point |
| --- | --- | --- |
| COc1cc2ncnc(N3CCN(C(=S)Nc4ccc5c(c4)CCC5)CC3)c2cc1OC [Compound 9, 4-(6,7-Dimethoxy-4-quinazolinyl)-N-(5-indanyl)-1-piperazinethiocarboxamide] | 670 nM | 207 to 210 °C |
| COc1cc2ncnc(N3CCN(C(=O)Nc4ccc(Cl)c(Cl)c4)CC3)c2cc1OC [Compound 54, N-(3,4-Dichlorophenyl)-4-(6,7-dimethoxy-4-quinazolinyl)-1-piperazinecarboxamide] | 710 nM | 221 to 222 °C |
| COc1cc2ncnc(N3CCN(C(=S)Nc4ccc(N(C)C)cc4)CC3)c2cc1OC [Compound 71, 4-(6,7-Dimethoxy-4-quinazolinyl)-N-(4-dimethylaminophenyl)-1-piperazinethiocarboxamide] | 940 nM | 226 to 227 °C |
| COc1cc2ncnc(N3CCN(C(=S)NCc4cccnc4)CC3)c2cc1OC [Compound 98, 4-(6,7-Dimethoxy-4-quinazolinyl)-N-(3-picolyl)-1-piperazinethiocarboxamide] | 220 nM | 104 to 106 °C |
| CCOc1cc2ncnc(N3CCN(C(=O)Nc4ccc([N+](=O)[O-])cc4)CC3)c2cc1OCC [Compound 105, 4-(6,7-Diethoxy-4-quinazolinyl)-N-(4-nitrophenyl)-1-piperazinecarboxamide] | 440 nM | 120 to 121 °C |
| COc1cc2nc(Cl)nc(N3CCN(C(=O)Nc4ccc(Oc5ccccc5)cc4)CC3)c2cc1OC [Compound 392, 4-(2-Chloro-6,7-dimethoxy-4-quinazolinyl)-N-(4-phenoxyphenyl)-1-piperazinecarboxamide] | – | 178 to 179 °C |
| COc1cc2nc(N3CCOCC3)nc(N3CCN(C(=O)Nc4ccc(Oc5ccccc5)cc4)CC3)c2cc1OC [Compound 393, 4-(6,7-Dimethoxy-2-morpholino-4-quinazolinyl)-N-(4-phenoxyphenyl)-1-piperazinecarboxamide] | – | 114 to 116 °C |
| O=C(Nc1ccc(Oc2ccccc2)cc1)N1CCN(c2ccnc3ccccc23)CC1 [Compound 394, N-(4-Phenoxyphenyl)-4-(4-quinolyl)-1-piperazinecarboxamide] | – | 145 to 146 °C |
| S=C(NCc1ccccc1)N1CCN(c2ccnc3ccccc23)CC1 [Compound 395, N-Benzyl-4-(4-quinolyl)-1-piperazinethiocarboxamide] | – | 75 to 79 °C |
| O=C(Nc1ccc(Oc2ccccc2)cc1)N1CCN(c2cc(C(F)(F)F)nc3ccccc23)CC1 [Compound 397, N-(4-Phenoxyphenyl)-4-(2-trifluoromethyl-4-quinolyl)-1-piperazinecarboxamide] | – | 203 to 204 °C |
| FC(F)(F)c1ccc2nccc(N3CCN(C(=S)NCc4ccccc4)CC3)c2c1 [Compound 398, N-Benzyl-4-(6-trifluoromethyl-4-quinolyl)-1-piperazinethiocarboxamide] | – | 158 to 159 °C |
| O=C(Nc1ccc(Oc2ccccc2)cc1)N1CCN(c2ccnc3ccc(Cl)cc23)CC1 [Compound 399, 4-(6-Chloro-4-quinolyl)-N-(4-phenoxyphenyl)-1-piperazinecarboxamide] | – | 188 to 189 °C |
| S=C(NCc1ccccc1)N1CCN(c2ccnc3ccc(Cl)cc23)CC1 [Compound 400, N-Benzyl-4-(6-chloro-4-quinolyl)-1-piperazinethiocarboxamide] | – | 173 to 174 °C |
| S=C(NCc1ccc(Cl)cc1)N1CCN(c2ccnc3ccc(Cl)cc23)CC1 [Compound 401, N-(4-Chlorobenzyl)-4-(6-chloro-4-quinolyl)-1-piperazinethiocarboxamide] | – | 89 to 90 °C |
| FC(F)(F)Oc1ccc2nccc(N3CCN(C(=S)NCc4ccccc4)CC3)c2c1 [Compound 403, N-Benzyl-4-(6-trifluoromethoxy-4-quinolyl)-1-piperazinethiocarboxamide] | – | 70 to 71 °C |
| O=C(Nc1ccc(Oc2ccccc2)cc1)N1CCN(c2ccnc3cc(C(F)(F)F)ccc23)CC1 [Compound 404, N-(4-Phenoxyphenyl)-4-(7-trifluoromethyl-4-quinolyl)-1-piperazinecarboxamide] | – | 163 to 164 °C |
| S=C(NCc1ccccc1)N1CCN(c2ccnc3cc(Cl)ccc23)CC1 [Compound 405, N-Benzyl-4-(7-chloro-4-quinolyl)-1-piperazinethiocarboxamide] | – | 84 to 86 °C |
| COc1cc2nccc(N3CCN(C(=O)Nc4ccc(Oc5ccccc5)cc4)CC3)c2cc1OC [Compound 407, 4-(6,7-Dimethoxy-4-quinolyl)-N-(4-phenoxyphenyl)-1-piperazinecarboxamide] | – | 204 to 206 °C |
| CCOC(=O)c1cnc2cc(OC)c(OC)cc2c1N1CCN(C(=O)Nc2ccc(Oc3ccccc3)cc2)CC1 [Compound 408, 4-(6,7-Dimethoxy-3-ethoxycarbonyl-4-quinolyl)-N-(4-phenoxyphenyl)-1-piperazinecarboxamide] | – | 163 to 164 °C |

| Structure (SMILES) | IC50 [1] | melting point |
| --- | --- | --- |
| CCOC(=O)c1cnc2cc(OC)c(OC)cc2c1N1CCN(C(=S)NCc2ccccc2)CC1 [Compound 409, N-Benzyl-4-(6,7-dimethoxy-3-ethoxycarbonyl-4-quinolyl)-1-piperazinethiocarboxamide] | – | 174 to 175 °C |
| CCOC(=O)c1cnc2cc(OC)c(OC)cc2c1N1CCN(C(=S)NCc2cccnc2)CC1 [Compound 410, 4-(6,7-Dimethoxy-3-ethoxycarbonyl-4-quinolyl)-N-(3-picolyl)-1-piperazinethiocarboxamide] | – | 92 to 94 °C |
| O=C(Nc1ccc(Oc2ccccc2)cc1)N1CCN(c2ccnc3c(C(F)(F)F)cccc23)CC1 [Compound 411, N-(4-Phenoxyphenyl)-4-(8-trifluoromethyl-4-quinolyl)-1-piperazinecarboxamide] | – | 214 to 215 °C |
| O=C(Nc1ccc(Oc2ccccc2)cc1)N1CCN(c2ccnc3c(Cl)cccc23)CC1 [Compound 412, 4-(8-Chloro-4-quinolyl)-N-(4-phenoxyphenyl)-1-piperazinecarboxamide] | – | 174 to 175 °C |
| Cc1ccc2nc(C(F)(F)F)cc(N3CCN(C(=O)Nc4ccc(Oc5ccccc5)cc4)CC3)c2c1[N+](=O)[O-] [Compound 413, 4-(6-Methyl-5-nitro-2-trifluoromethyl-4-quinolyl)-N-(4-phenoxyphenyl)-1-piperazinecarboxamide] | – | 197 to 198 °C |
| O=C(Nc1ccc(Oc2ccccc2)cc1)N1CCN(c2nncc3ccccc23)CC1 [Compound 414, N-(4-Phenoxyphenyl)-4-(1-phthalazinyl)-1-piperazinecarboxamide] | – | 202 to 203 °C |
| O=C(Nc1ccc(Oc2ccccc2)cc1)N1CCN(c2nnc(Cl)c3ccccc23)CC1 [Compound 416, 4-(4-Chloro-1-phthalazinyl)-N-(4-Phenoxyphenyl)-1-piperazinecarboxamide] | – | 196 to 197 °C |
| O=C(Nc1ccc(Oc2ccccc2)cc1)N1CCN(c2nnc(Cc3ccccc3)c3ccccc23)CC1 [Compound 418, 4-(4-Benzyl-1-phthalazinyl)-N-(4-phenoxyphenyl)-1-piperazinecarboxamide] | – | 100 to 101 °C |
| CCn1c(=O)n(CC)c2cc3c(N4CCN(C(=O)Nc5ccc(Oc6ccccc6)cc5)CC4)nncc3cc21 [Compound 419, 4-(1,3-Diethyl-1,3-dihydro-2-oxo-2H-imidazo[4,5-g]phthalazin-5-yl)-N-(4-phenoxyphenyl)-1-piperazinecarboxamide] | – | 125 to 128 °C |
| CCn1c(=O)n(CC)c2cc3c(N4CCN(C(=O)Nc5ccc(Oc6ccccc6)cc5)CC4)nnc(Cl)c3cc21 [Compound 421, 4-(5-Chloro-1,3-diethyl-1,3-dihydro-2-oxo-2H-imidazo[4,5-g]phthalazin-8-yl)-N-(4-phenoxyphenyl)-1-piperazinecarboxamide] | – | 172 to 173 °C |
| O=C(Nc1ccc(Oc2ccccc2)cc1)N1CCN(c2nccc3ccccc23)CC1 [Compound 422, 4-(1-Isoquinolyl)-N-(4-phenoxyphenyl)-1-piperazinecarboxamide] | – | 122 to 123 °C |
| COc1cc2ccnc(N3CCN(C(=O)Nc4ccc(Oc5ccccc5)cc4)CC3)c2cc1OC [Compound 423, 4-(6,7-Dimethoxy-1-isoquinolyl)-N-(4-phenoxyphenyl)-1-piperazinecarboxamide] | – | 178 to 179 °C |
| COc1cc2ccnc(N3CCN(C(=S)NCc4ccccc4)CC3)c2cc1OC [Compound 424, N-Benzyl-4-(6,7-dimethoxy-1-isoquinolyl)-1-piperazinethiocarboxamide] | – | 171 to 172 °C |
| COc1cc2nncc(N3CCN(C(=O)Nc4ccc(Oc5ccccc5)cc4)CC3)c2cc1OC [Compound 426, 4-(6,7-Dimethoxy-4-cinnolinyl)-N-(4-phenoxyphenyl)-1-piperazinecarboxamide] | – | 165 to 167 °C |
| COc1cc2nncc(N3CCN(C(=S)NCc4cccnc4)CC3)c2cc1OC [Compound 427, 4-(6,7-Dimethoxy-4-cinnolinyl)-N-(3-picolyl)-1-piperazinethiocarboxamide] | – | 181 to 190 °C |
| COc1cc2ncnc(N3CCCN(C(=O)Nc4ccc(Oc5ccccc5)cc4)CC3)c2cc1OC [Compound 435, 4-(6,7-Dimethoxy-4-quinazolinyl)-N-(4-phenoxyphenyl)-1-homopiperazinecarboxamide] | – | 93 to 96 °C |
| COc1cc2ncnc(N3CCCN(C(=S)NCc4ccccc4)CC3)c2cc1OC [Compound 436, N-Benzyl-4-(6,7-dimethoxy-4-quinazolinyl)-1-homopiperazinethiocarboxamide] | – | 86 to 88 °C |
| COc1cc2ncnc(N3CCN(C(=S)NCC(=O)c4ccccc4)CC3)c2cc1OC [Compound 445, 4-(6,7-Dimethoxy-4-quinazolinyl)-N-phenacyl-1-piperazinethiocarboxamide] | – | 99 to 100 °C |
| COc1cc2ncnc(N3CCN(C(=S)NCC4(c5ccc(Cl)cc5)CC4)CC3)c2cc1OC [Compound 446, N-[1-(4-Chlorophenyl)cyclopropylmethyl]-4-(6,7-dimethoxy-4-quinazolinyl)-1-piperazinethiocarboxamide] | – | 108 to 111 °C |
